From the supplement of paper PMC10307832

Experiments:
Test in all cases: relative viability (nuclei count vs DMSO), 5 days (fraction); higher = more cells survive
Decitabine + Luminespib = compound: Nc1ncn([C@H]2C[C@H](O)[C@@H](CO)O2)c(=O)n1 [Decitabine] + CCNC(=O)c1noc(-c2cc(C(C)C)c(O)cc2O)c1-c1ccc(CN2CCOCC2)cc1 [Luminespib] (partner 0.01 µM)
How it was run: (§1)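 Lung cancer cell lines were pin-tool dosed in 1536-well plates on the day after seeding, with either a lone drug or a fixed anchor-drug dose plus five library-drug doses (not always all listed) in √10 steps. Nuclei were counted on 4× images after 5 days. Relative viability is the ratio of treated-well to vehicle-well nuclei counts, with each value a median of duplicate plates.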

Decitabine + Vorinostat = compound: Nc1ncn([C@H]2C[C@H](O)[C@@H](CO)O2)c(=O)n1 [Decitabine] + O=C(CCCCCCC(=O)Nc1ccccc1)NO [Vorinostat] (partner 1 µM)
How it was run: as §1

Decitabine + Bortezomib = compound: Nc1ncn([C@H]2C[C@H](O)[C@@H](CO)O2)c(=O)n1 [Decitabine] + CC(C)C[C@H](NC(=O)[C@H](Cc1ccccc1)NC(=O)c1cnccn1)B(O)O [Bortezomib] (partner 0.002 µM)
How it was run: as §1

Decitabine + AZD7762 = compound: Nc1ncn([C@H]2C[C@H](O)[C@@H](CO)O2)c(=O)n1 [Decitabine] + NC(=O)Nc1cc(-c2cccc(F)c2)sc1C(=O)N[C@H]1CCCNC1 [AZD7762] (partner 0.2 µM)
How it was run: as §1

Cell Line | relative viability (Decitabine + Luminespib; first compound 0.04 µM) | relative viability (Decitabine + Luminespib; first compound 0.1265 µM) | relative viability (Decitabine + Luminespib; first compound 0.4 µM) | relative viability (Decitabine + Luminespib; first compound 1.265 µM) | relative viability (Decitabine + Luminespib; first compound 4 µM) | relative viability (Decitabine + Vorinostat; first compound 0.04 µM) | relative viability (Decitabine + Vorinostat; first compound 0.1265 µM) | relative viability (Decitabine + Vorinostat; first compound 0.4 µM) | relative viability (Decitabine + Vorinostat; first compound 1.265 µM) | relative viability (Decitabine + Vorinostat; first compound 4 µM) | relative viability (Decitabine + Bortezomib; first compound 0.04 µM) | relative viability (Decitabine + Bortezomib; first compound 0.1265 µM) | relative viability (Decitabine + Bortezomib; first compound 0.4 µM) | relative viability (Decitabine + Bortezomib; first compound 1.265 µM) | relative viability (Decitabine + Bortezomib; first compound 4 µM) | relative viability (Decitabine + AZD7762; first compound 0.04 µM) | relative viability (Decitabine + AZD7762; first compound 0.1265 µM) | relative viability (Decitabine + AZD7762; first compound 0.4 µM) | relative viability (Decitabine + AZD7762; first compound 1.265 µM) | relative viability (Decitabine + AZD7762; first compound 4 µM)
SK-MES-1 | 0.566 | 0.575 | 0.331 | 0.288 | 0.232 | 0.812 | 0.739 | 0.529 | 0.301 | 0.319 |  |  |  |  |  |  |  |  |  | 
Calu-6 |  |  |  |  |  |  |  |  |  |  | 0.853 | 0.67 | 0.43 | 0.373 | 0.321 |  |  |  |  | 
SK-LU-1 | 0.18 | 0.212 | 0.196 | 0.204 | 0.208 | 0.611 | 0.65 | 0.443 | 0.453 | 0.433 | 0.781 | 0.849 | 0.251 | 0.516 | 0.503 |  |  |  |  | 
NCI-H2023 | 0.317 | 0.386 | 0.153 | 0.138 | 0.14 | 0.305 | 0.389 | 0.23 | 0.142 | 0.119 | 0.628 | 0.61 | 0.206 | 0.206 | 0.155 |  |  |  |  | 
HCC-366 |  |  |  |  |  | 0.235 | 0.313 | 0.138 | 0.0554 | 0.0657 | 0.971 | 0.788 | 0.421 | 0.197 | 0.121 | 0.208 | 0.276 | 0.114 | 0.0535 | 0.0424
NCI-H1650 | 0.188 | 0.182 | 0.194 | 0.201 | 0.179 | 0.358 | 0.367 | 0.318 | 0.195 | 0.215 | 0.18 | 0.166 | 0.185 | 0.201 | 0.187 |  |  |  |  | 
SW 1573 | 0.135 | 0.172 | 0.201 | 0.143 | 0.151 | 0.515 | 0.601 | 0.458 | 0.325 | 0.206 | 0.969 | 0.895 | 0.99 | 0.575 | 0.382 |  |  |  |  | 
NCI-H661 | 0.937 | 0.771 | 0.628 | 0.534 | 0.452 | 0.806 | 0.602 | 0.54 | 0.467 | 0.485 | 0.688 | 0.61 | 0.459 | 0.339 | 0.332 |  |  |  |  | 
NCI-H1395 | 0.626 | 0.661 | 0.568 | 0.432 | 0.438 | 0.548 | 0.634 | 0.605 | 0.429 | 0.524 |  |  |  |  |  | 0.379 | 0.39 | 0.446 | 0.391 | 0.348
NCI-H2228 | 0.102 | 0.134 | 0.116 | 0.148 | 0.165 | 0.221 | 0.304 | 0.16 | 0.169 | 0.179 | 0.788 | 0.755 | 0.389 | 0.314 | 0.229 |  |  |  |  | 
NCI-H1944 | 0.643 | 0.645 | 0.633 | 0.389 | 0.369 | 0.505 | 0.486 | 0.424 | 0.265 | 0.299 |  |  |  |  |  | 0.331 | 0.289 | 0.29 | 0.218 | 0.231
COR-L23 | 0.331 | 0.402 | 0.298 | 0.222 | 0.148 | 0.258 | 0.259 | 0.184 | 0.132 | 0.126 | 0.695 | 0.703 | 0.42 | 0.316 | 0.234 |  |  |  |  | 
NCI-H2342 | 0.765 | 0.737 | 0.804 | 0.537 | 0.434 | 0.755 | 0.798 | 0.728 | 0.542 | 0.522 |  |  |  |  |  | 0.507 | 0.593 | 0.517 | 0.457 | 0.319
NCI-H1793 | 0.154 | 0.212 | 0.19 | 0.176 | 0.213 | 0.462 | 0.631 | 0.552 | 0.382 | 0.325 |  |  |  |  |  | 0.37 | 0.591 | 0.258 | 0.154 | 0.169
NCI-H1299 |  |  |  |  |  |  |  |  |  |  | 1.01 | 0.988 | 0.965 | 0.867 | 0.865 |  |  |  |  | 
NCI-H520 | 0.212 | 0.214 | 0.214 | 0.254 | 0.239 | 0.622 | 0.627 | 0.413 | 0.397 | 0.296 | 0.628 | 0.595 | 0.374 | 0.297 | 0.221 |  |  |  |  | 
NCI-H522 | 1.07 | 0.919 | 0.923 | 0.652 | 0.684 | 0.898 | 0.684 | 0.562 | 0.505 | 0.54 |  |  |  |  |  | 0.819 | 0.692 | 0.571 | 0.567 | 0.591
NCI-H1623 | 0.51 | 0.475 | 0.504 | 0.427 | 0.434 |  |  |  |  |  |  |  |  |  |  |  |  |  |  | 
NCI-H2170 | 0.645 | 0.641 | 0.488 | 0.286 | 0.253 | 0.582 | 0.568 | 0.414 | 0.28 | 0.257 |  |  |  |  |  | 0.412 | 0.52 | 0.554 | 0.268 | 0.245
NCI-H1648 |  |  |  |  |  | 0.384 | 0.386 | 0.305 | 0.249 | 0.315 |  |  |  |  |  | 0.692 | 0.672 | 0.469 | 0.448 | 0.428
NCI-H1703 |  |  |  |  |  |  |  |  |  |  | 0.243 | 0.258 | 0.2 | 0.182 | 0.176 | 0.111 | 0.0883 | 0.132 | 0.152 | 0.102
COR-L 105 | 0.561 | 0.517 | 0.714 | 0.469 | 0.571 | 0.768 | 0.721 | 0.61 | 0.585 | 0.439 | 0.463 | 0.65 | 0.378 | 0.494 | 0.422 |  |  |  |  | 
LK-2 | 0.196 | 0.193 | 0.156 | 0.214 | 0.17 | 0.229 | 0.268 | 0.285 | 0.204 | 0.208 |  |  |  |  |  | 0.299 | 0.37 | 0.288 | 0.256 | 0.14
NCI-H2009 | 0.929 | 0.68 | 0.54 | 0.328 | 0.348 | 0.474 | 0.446 | 0.356 | 0.285 | 0.335 | 0.765 | 0.571 | 0.301 | 0.305 | 0.243 |  |  |  |  | 
